These results are taken from ChEMBL document CHEMBL1150388, “Discovery of orally active pyrrolopyridine- and aminopyridine-based Met kinase inhibitors” (Bioorg Med Chem Lett, 2008).

In data set [1] the target is Hepatocyte growth factor receptor (Homo sapiens, UniProt P08581). As to the kind of experiment: Inhibition of Met kinase.
Data set [2] is described as follows: Antiproliferative activity against human GTL16 cells. It is filed as functional, cell-based. The conditions noted are these: GTL 16.
The nature of data set [3]: Tmax in mouse at 50 mg/kg, po. It is filed as ADME, organism-based. Also noted: dose 50 mg/kg, route oral. The conditions noted are these: in vivo.
Data set [4] in a line: Cmax in mouse at 50 mg/kg, po. It is filed as ADME, organism-based. Also noted: dose 50 mg/kg, route oral. The conditions noted are these: in vivo.
Data set [5] can be described thus: Metabolic stability in mouse liver microsomes at 3 uM after 10 mins. It is filed as ADME, Microsome. In general terms: Microsomes from liver hold many membrane-bound enzymes, among them those of drug oxidation.
The test system of another data set is Liver microsomes. As to the kind of experiment: Metabolic stability in human liver microsomes at 3 uM after 10 mins. It is filed as ADME, Microsome.
A short description of data set [6]: AUC (0 to 4 hrs) in mouse at 50 mg/kg, po. Also noted: time < 4 hr, dose 50 mg/kg, route oral. The conditions noted are these: plasma. It is filed as ADME, organism-based.
The target of another data set is Cytochrome P450 3A4 (Homo sapiens, UniProt P08684). As to the kind of experiment: Inhibition of human CYP3A4. It is filed as ADME.
Cytochrome P450 3A4, sequence (P08684 whole entry): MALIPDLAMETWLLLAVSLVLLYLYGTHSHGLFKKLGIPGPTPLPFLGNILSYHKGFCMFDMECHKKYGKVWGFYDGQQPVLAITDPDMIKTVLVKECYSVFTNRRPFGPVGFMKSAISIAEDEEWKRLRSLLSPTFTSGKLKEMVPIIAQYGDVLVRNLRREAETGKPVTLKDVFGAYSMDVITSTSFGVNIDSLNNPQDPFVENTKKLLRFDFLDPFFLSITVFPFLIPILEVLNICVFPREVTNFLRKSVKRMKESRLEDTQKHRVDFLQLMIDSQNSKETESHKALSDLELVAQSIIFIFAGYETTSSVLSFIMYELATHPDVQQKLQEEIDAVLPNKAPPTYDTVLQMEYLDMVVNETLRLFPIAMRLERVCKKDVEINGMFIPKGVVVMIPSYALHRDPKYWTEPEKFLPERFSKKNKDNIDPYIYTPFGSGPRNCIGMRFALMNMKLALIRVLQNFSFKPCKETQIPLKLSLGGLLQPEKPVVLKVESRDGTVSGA
Data set [7] can be described thus: AUC (0 to 8 hrs) in mouse at 50 mg/kg, po. The conditions noted are these: plasma. It is filed as ADME, organism-based. More on the design: time < 8 hr, dose 50 mg/kg, route oral.
Data set [8] is described as follows: Antitumor activity in human GTL16 cells xenografted athymic mouse 50 mg/kg, po daily once for 14 days. The conditions noted are these: GTL 16, 336 h, read-out: TGI. It is filed as functional. On the technique in general: A xenograft is tissue or cells of one species grown in another, often human tumour cells in immunodeficient mice.
Data set [9] is described as follows: Antitumor activity in human GTL16 cells xenografted athymic mouse 100 mg/kg, po daily once for 14 days. The conditions noted are these: GTL 16, 336 h, read-out: TGI. It is filed as functional.
A short description of data set [10]: Protein binding in mouse plasma. It is filed as ADME, cell-free. The conditions noted are these: read-out: PPB (converted).
Data set [11] in a line: Antitumor activity in human GTL16 cells xenografted athymic mouse 125 mg/kg, po daily once for 14 days. It is filed as functional. The conditions noted are these: GTL 16, 336 h, read-out: TGI.
The nature of data set [12]: Antitumor activity in human GTL16 cells xenografted athymic mouse 25 mg/kg, po daily once for 14 days. The conditions noted are these: GTL 16, 336 h, read-out: TGI. It is filed as functional.
A short description of data set [13]: Antitumor activity in human GTL16 cells xenografted athymic mouse 75 mg/kg, po daily once for 14 days. It is filed as functional. The conditions noted are these: GTL 16, 336 h, read-out: TGI.

pIC50: −log10 of the molar value.

Hepatocyte growth factor receptor, sequence (P08581 whole entry): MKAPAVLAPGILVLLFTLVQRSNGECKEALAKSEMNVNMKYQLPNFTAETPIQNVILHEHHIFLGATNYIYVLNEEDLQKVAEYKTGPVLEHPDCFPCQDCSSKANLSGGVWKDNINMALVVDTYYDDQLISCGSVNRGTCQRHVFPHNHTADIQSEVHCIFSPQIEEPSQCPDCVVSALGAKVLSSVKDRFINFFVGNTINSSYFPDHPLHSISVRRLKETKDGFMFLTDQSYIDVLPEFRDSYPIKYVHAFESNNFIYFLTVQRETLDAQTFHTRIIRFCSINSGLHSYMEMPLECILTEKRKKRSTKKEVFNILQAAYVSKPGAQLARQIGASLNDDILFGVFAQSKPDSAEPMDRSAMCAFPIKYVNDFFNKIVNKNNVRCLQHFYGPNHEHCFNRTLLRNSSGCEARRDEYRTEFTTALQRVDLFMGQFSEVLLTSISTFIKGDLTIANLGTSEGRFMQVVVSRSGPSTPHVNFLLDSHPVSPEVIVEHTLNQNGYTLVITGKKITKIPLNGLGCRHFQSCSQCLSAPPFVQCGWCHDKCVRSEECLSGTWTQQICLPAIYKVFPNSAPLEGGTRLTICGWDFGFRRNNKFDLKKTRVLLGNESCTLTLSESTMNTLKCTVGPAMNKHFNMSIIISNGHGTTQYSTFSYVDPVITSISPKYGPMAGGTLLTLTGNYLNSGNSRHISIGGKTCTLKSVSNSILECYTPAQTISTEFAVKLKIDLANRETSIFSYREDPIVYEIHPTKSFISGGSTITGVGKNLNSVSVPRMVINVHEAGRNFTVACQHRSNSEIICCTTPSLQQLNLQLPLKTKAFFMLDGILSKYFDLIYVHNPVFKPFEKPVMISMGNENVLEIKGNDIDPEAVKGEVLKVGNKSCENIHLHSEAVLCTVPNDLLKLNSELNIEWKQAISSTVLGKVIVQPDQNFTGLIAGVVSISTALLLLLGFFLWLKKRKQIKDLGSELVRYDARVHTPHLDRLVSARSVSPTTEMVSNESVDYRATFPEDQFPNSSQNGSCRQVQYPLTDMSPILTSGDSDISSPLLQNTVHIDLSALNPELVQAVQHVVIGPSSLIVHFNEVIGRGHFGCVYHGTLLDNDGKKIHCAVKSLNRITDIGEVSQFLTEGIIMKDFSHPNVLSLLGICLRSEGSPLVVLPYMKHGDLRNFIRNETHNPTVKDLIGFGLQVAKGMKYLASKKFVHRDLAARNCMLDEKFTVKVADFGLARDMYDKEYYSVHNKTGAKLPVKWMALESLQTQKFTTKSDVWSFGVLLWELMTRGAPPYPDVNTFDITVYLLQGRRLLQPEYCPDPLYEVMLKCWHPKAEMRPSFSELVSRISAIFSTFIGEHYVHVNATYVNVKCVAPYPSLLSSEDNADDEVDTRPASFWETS

In the case of `O=C(CC(=O)Nc1ccc(Oc2ccnc3[nH]ccc23)c(F)c1)Nc1ccc(F)cc1`, the results for the pIC50 in [1] and in [2] were 7.19 and 5.97, respectively.
For the molecule `O=C(Cc1ccc(F)cc1)NC(=O)Nc1ccc(Oc2ccnc3[nH]ccc23)c(F)c1`, the pIC50 (in general, the negative decadic logarithm of the IC50, by convention in mol/L) in data set [1] was 6.96; in data set [2], 6.82. Further, in data set [3], the Tmax (usually the time from dosing to the highest level) is 4 h. The Cmax – broadly, the peak of the concentration-time curve – in [4] worked out at 2.4 µM. In [5], this molecule returned a Rate of metabolism of 0.035 nmol/min/mg. Besides, in the data set on Liver microsomes, the Stability was 0.015 nmol/min/mg. Also, the AUC(0-t) (usually the area under the concentration-time curve up to a stated or last time point) at 4 h in data set [6] was determined as 6 µM·h.
For `CN1CCN(CC(=O)c2c[nH]c3nccc(Oc4ccc(NC(=O)NC(=O)Cc5ccc(F)cc5)cc4F)c23)CC1`, the pIC50 in data set [1] is 7.96; in data set [2], 5.65.
On to `C#Cc1c(Oc2ccc(NC(=O)NC(=O)Cc3ccc(F)cc3)cc2F)ccnc1N`, for which the pIC50 is 8.70 in [1], 7.40 in data set [2] and 6.10 at Cytochrome P450 3A4.
As to `O=C(Cc1ccc(F)cc1)NC(=O)Nc1ccc(Oc2ccnc3[nH]c(-c4cccnc4)cc23)c(F)c1`, the pIC50 in data set [1] was 8.70; in [2] it was 7.52. For the same molecule, the Tmax in [3] was determined as 4 h. In data set [7], this molecule had an AUC(0-t) at 8 h of 11.4 µM·h. For the same molecule, in data set [4], the highest level (Cmax) was 2.1 µM. The Rate of metabolism in data set [5] was found to be 0.036 nmol/min/mg. In the data set on Liver microsomes, this molecule returned a Stability of 0.016 nmol/min/mg.
As for `Nc1nc(-c2c[nH]c3nccc(Oc4ccc(NC(=O)NC(=O)Cc5ccc(F)cc5)cc4F)c23)cs1`, the pIC50 was 8.15 in data set [1] and 7.52 in data set [2].
Take `NCC#Cc1c(Oc2ccc(NC(=O)NC(=O)Cc3ccc(F)cc3)cc2F)ccnc1N`: the pIC50 in [1] was 8.30; in data set [2], 6.60; against Cytochrome P450 3A4, 5.74.
As for `O=C(Cc1ccc(F)cc1)NC(=O)Nc1ccc(Oc2ccnc3[nH]cc(C(=O)CN4CCC(O)C4)c23)c(F)c1` (stereo not drawn), the pIC50 is 7.72 in [1] and 5.83 in data set [2].
Take `O=C(Cc1ccc(F)cc1)NC(=O)Nc1ccc(Oc2ccnc3[nH]cc(-c4cccnc4)c23)c(F)c1`: the pIC50 is 8.70 in data set [1] and 7.70 in data set [2]. For the same molecule, the Tmax in [3] is 4 h. The same molecule showed an AUC(0-t) at 8 h in data set [7] of 34 µM·h. This molecule also came in with a Cmax in data set [4] of 6 µM. Moreover, the inhibition in vivo at 50 mg/kg in [8] worked out at 67%. The Rate of metabolism in data set [5] was determined as 0.049 nmol/min/mg. Also, the Stability in the data set with Liver microsomes stood at 0.038 nmol/min/mg. The inhibition in vivo at 100 mg/kg in data set [9] was 88%.
As to `CN(C)CC#Cc1c(Oc2ccc(NC(=O)NC(=O)Cc3ccc(F)cc3)cc2F)ccnc1N`, the figures for the pIC50 (in [1]; in data set [2]; at Cytochrome P450 3A4) were 8.40, 6.66 and 5.57, respectively.
Turning to `Nc1nccc(Oc2ccc(NC(=O)NC(=O)Cc3ccc(F)cc3)cc2F)c1C#Cc1ccccn1`, the pIC50 in [1] is 8.30; in data set [2] it was 7.40; on Cytochrome P450 3A4 it was 4.43. The Tmax in data set [3] was 4 h. In data set [7], this molecule yielded an AUC(0-t) at 8 h of 85 µM·h. The molecule further had a Cmax in data set [4] of 16 µM. Also, the inhibition in vivo at 50 mg/kg in data set [8] was < 50%. The Rate of metabolism in [5] was found to be 0.042 nmol/min/mg. For the same molecule, in the data set on Liver microsomes, the Stability was found to be 0 nmol/min/mg. For the same molecule, in [10], the fraction unbound is 0.0002.
For `CN(C)CC(=O)c1c[nH]c2nccc(Oc3ccc(NC(=O)NC(=O)Cc4ccc(F)cc4)cc3F)c12`, the results for the pIC50 in [1] and in data set [2] were 7.36 and 5.98, respectively.
For `Nc1cc(Oc2ccc(NC(=O)NC(=O)Cc3ccc(F)cc3)cc2F)ccn1`, the pIC50 in data set [1] was 7.46; in data set [2], 6.54. In data set [3], the Tmax turned out to be 4 h. Moreover, the inhibition in vivo at 125 mg/kg in data set [11] stood at 98%. In [4], this molecule had a Cmax of 10.5 µM. The molecule further registered a Rate of metabolism in data set [5] of 0.018 nmol/min/mg. The same molecule had a Stability in the data set with Liver microsomes of 0 nmol/min/mg. For the same molecule, the AUC(0-t) at 4 h in data set [6] was 33 µM·h. The inhibition in vivo at 25 mg/kg in [12] is < 50%. Besides, in [13], the inhibition in vivo at 75 mg/kg is 80%.
In the case of `O=C(Cc1ccc(F)cc1)NC(=O)Nc1ccc(Oc2ccnc3[nH]cc(C(=O)NCc4cccnc4)c23)c(F)c1`, the pIC50 in data set [1] was 7.96; in data set [2], 6.19.
For `Nc1cc(Oc2ccc(NC(=O)CC(=O)Nc3ccc(F)cc3)cc2F)ccn1`, in that order: 7.00 and 5.83.
Turning to `O=C(Cc1ccc(F)cc1)NC(=O)Nc1ccc(Oc2ccnc3[nH]cc(CO)c23)c(F)c1`, the pIC50 in [1] is 8.40; in data set [2] it was 6.74.
On to `COC(=O)c1c[nH]c2nccc(Oc3ccc(NC(=O)NC(=O)Cc4ccc(F)cc4)cc3F)c12`, for which the values for the pIC50 in [1] and in data set [2] were 8.30 and 6.74, respectively.
For `Nc1nccc(Oc2ccc(NC(=O)NC(=O)Cc3ccc(F)cc3)cc2F)c1C#CCO`, the pIC50 in data set [1] was 8.52; in [2], 7.52; against Cytochrome P450 3A4 it was 6.15.
